Data set [1] in a line: Melting time at 37° C. Format: physicochemical. As to conditions: 1 mg per 1 g of the chocolate; control 19 minutes. As to the method: (§1) Approximately 20 mg of butter, or pork fat, or beef fat, or cocoa butter, or chocolate, with or without certain concentrations of carotenoids, were placed on the surface of the laboratory slides and incubated at 37° C. in a laboratory incubator (TLK39).
Results presented in FIG. 15 show three different carotenoids—lycopene, lutein and astaxanthin, can reduce, albeit to a different degree, the melting time of dark chocolate regardless of its tempering protocols: Protocol I—28° C., Protocol II—29° C., Protocol III—30° C.

Data set [2] in a line: Size of pork fat globules, microscopy. Format: physicochemical. The protocol:
(§2) For measurement of lipid droplets and fat globules and quantification of their size binocular microscope Olympus BX41 was used with Cell^B software for morphometric analysis. All parameters were collected from 10 randomly selected microscopic fields at ×1000).
When carotenoids were added to animal fat, with a relatively high percentage of saturated fatty acid, a similar trend in increased fat globules was observed, although to a lesser degree. The maximum doses of lycopene or astaxanthin caused a similar increase in the pork fat globules diameter, only 50%, FIG. 2 and table 3.

Data set [3] in a line: Spreadability of fat drops on hard surface (viscosity). Format: physicochemical. The protocol: The described above enlargement of lipid droplets or fat globules, caused by carotenoids, translated into reduction of the viscosity of their product. This could be visually observed without any instrumentation—the larger surface area is covered by spreading a drop of oil or molten fat to lower the viscosity of this food mass.
When astaxanthin was added to the dairy butter reduction its viscosity could be visually observed After measuring and comparing the size of the spread drops this decrease was estimated to be about 3, (FIG. 5).

Data set [4] in a line: Defrosting time of frozen oil. Format: physicochemical. As to the method: To determined defrosting time, frozen oil aliquots of 200 μI were incubated at ambient temperature of 20±2 C° until they were completely melted. Period of time, which was required for the tested sample to be melted, was measured with a laboratory timer (QUANTUM).
A short description of data set [5]: Size of lipid droplets of dairy butter, microscopy. The format is physicochemical.
From the text: as §2
Incorporation of lycopene into the butter led to a significant increase in the size of its lipid droplets and many reached more than 100 or even 300 fold of their diameter. This effect was dose-dependent, and can already be observed for less than 1 molecule of lycopene to 224,000 molecules of butter triglycerides.

The nature of data set [6]: Size of beef fat globules, microscopy. Format: physicochemical. The source says: For measurement of lipid droplets and fat globules and quantification of their size binocular microscope Olympus BX41 was used with Cell^B software for morphometric analysis. All parameters were collected from 10 randomly selected microscopic fields at ×1000). In case of beef fat, lycopene incorporation led to a smaller increase of its fat globules, only by 30%, FIG. 3.

Data set [7] in a line: Melting time at 37° C. The following applies: 0.3 mg per 1 g of butter. Format: physicochemical. As to the method:
as §1

The nature of data set [8]: Heating olive oil-in-water emulsions. Format: physicochemical.
The test system of data set [9] is healthy volunteers, facial skin. Kind of data set: Astaxanthin trial, residual skin surface components (RSSC). Format: in vivo, human. As to conditions: 4 mg daily, 4 weeks. As to the method:
Group I—31 (17 male and 14 female subjects, 40-80 years of age) for astaxanthin intervention;
Group I—participants received 4 mg daily doses of formulated astaxanthin,
Daily dose of each carotenoid product was taken in one capsule with the main evening meal for 4 weeks (from day 1 to day 28 of the study).
For RSSC sample collection all participants of the study were requested to avoid facial hygienic manipulations for 24 hours before material collection, which was carried out in the morning. These samples were collected only before initiation of astaxanthin supplementation (day 0) and at the end of the study (day 29). RSSC sample collection and preparation was performed according to previously described procedures. Briefly, RSSC samples were collected using polyester swabs from the surface of the facial skin (the sides of the nose). During the procedure two samples were taken (one swab per side). Each collected sample was placed on the surface of a microscope slide. A second microscope slide was pressed against the surface of the first one. […] All slides with collected samples (i.e. four slides per study participant per time point) were coded to provide sample anonymity for blinded analysis. All collected samples were sent to the laboratory of Lycotec Ltd for further processing and eventual microscopic examination.
For morphological analysis of RSSC samples one slide of the first pair was stained with hematoxylin and eosin in order to identify any cells or cell remnants. The second slide was stained using Oil Red O (Lipid Stain, ab150678, Abcam, Cambridge, UK) for lipid visualization and lipid droplet size evaluation. One slide from the other pair was stained with crystal violet solution (Gram staining) to assess the level of microorganism presence. The remaining slides were kept unstained for possible future use.
All stained smears were examined microscopically by a highly experienced cytopathologist. Microscopy was performed using Olympus BX41 laboratory microscope (Olympus, Japan) at ×1000 magnification.
The analysis included examining 40 fields of view within one smear. Dark field microscopy was applied for lipid crystal visualization. […]
The analysis of typical structural elements of the RSSC comprised lipid droplet measurements, counting characteristic lipid crystals and desquamated corneocytes, and evaluation of bacterial presence as previously described. The indicated micro objects/structures were quantified using Cell^B imaging software (Digital Imaging Solutions, Olympus, Japan). […]
In the morphological analysis of the RSSC quantitatively assessed parameters comprised lipid droplet size, numbers of desquamated corneocytes and lipid crystals and bacterial presence estimates (using Bacterial Presence Assessment Scale as described in our previous paper).

Data set [10] in a line: Oil volume needed to cover water surface. The format is physicochemical. The following applies: 100 ml water sample; unmodified oil 21.5 ml. The source says:
The other way to assess changes in oil viscosity, caused by carotenoids, would be to measure how much oil would be needed to cover a water surface of the same size. The lower viscosity of the oil the more spreadable it will be, and consequently less of it would be needed to cover this surface. Therefore, by measuring how much oil would be required to cover a certain surface of water we can asses how deep changes in the lipid folding were made by incorporating carotenoids.
An additional nine heating experiments were carried out when either pure Napolina olive oil, Napolina olive oil containing Astaxanthin (7 mg/ml), or Napolina olive oil containing Lycopene (7 mg/ml) was carefully poured over the surface of the water in order to prevent evaporation. The amount of oil required to completely cover the surface of the 100 ml water sample in the cup (diameter—7.4 cm) was measured (15 ml Falcon laboratory tubes and 1 ml Pipetman pitettes were used) and recorded for each oil type. The thickness of the resulting oil film (necessary to completely cover water surface) was then calculated. Temperature change curves were compared for uncovered water and water samples overlayed with three varieties of oil at heating temperatures of 200° C., 250° C. and 300° C. Water samples overlaid with oils were heated until water reached boiling point (usually at 99° C.). […]

Turning to `CC1=C[C@H](O)CC(C)(C)[C@H]1/C=C/C(C)=C/C=C/C(C)=C/C=C/C=C(C)/C=C/C=C(C)/C=C/C1=C(C)C[C@@H](O)CC1(C)C` [Lutein, lutein], the “Melting time of dark chocolate” value in the data set “Melting time at 37° C. [1]” was found to be 6 min.
With `CC1=C(/C=C/C(C)=C/C=C/C(C)=C/C=C/C=C(C)/C=C/C=C(C)/C=C/C2=C(C)C(=O)[C@@H](O)CC2(C)C)C(C)(C)C[C@H](O)C1=O` [Astaxanthin, astaxanthin], the “Size of pork fat globules, Mean” value is listed as 5.687 μm in data set [2] (astaxanthin dose 0.1 per 30 g of pork fat); 4.937 μm in data set [2] (astaxanthin dose 0.5 per 30 g of pork fat); 5.333 μm in data set [2] (astaxanthin dose 1.0 per 30 g of pork fat); 6.812 μm in data set [2] (astaxanthin dose 2.0 per 30 g of pork fat); 8.307 μm in data set [2] (astaxanthin dose 3.5 per 30 g of pork fat); 7.9 μm in data set [2] (astaxanthin dose 7.0 per 30 g of pork fat). Besides, in data set [2] (astaxanthin dose 10.0 per 30 g of pork fat), the “Size of pork fat globules, Mean” value turned out to be 8.692 μm. In data set [2] (maximum doses), the “Increase in the pork fat globules diameter” value turned out to be 50%. The “Decrease of dairy butter viscosity from size of the spread drops” value in data set [3] is “about 3”. In addition, the “Reduction of thawing time of Olive oil” value in [4] (0.3 mg per 1 ml of the oil) amounted to 11 fold. In addition, the “Thawing time of frozen Olive oil” value in [4] (0.3 mg per 1 ml of the oil, controls 60 (lycopene) and 48 seconds (astaxanthin)) is 4.3 s. Besides, the “Reduction of thawing time of Sunflower oil” value in [4] (0.3 mg per 1 ml the oil) is reported as “above 3 fold”. Moreover, the Size of butter lipid droplets, Mean in [5] (astaxanthin dose 0.1 per 30 g of butter) was 7.44 µm; in data set [5] (astaxanthin dose 0.5 per 30 g of butter) it was 9.23 µm; in data set [5] (astaxanthin dose 1.0 per 30 g of butter) it was 12.4 µm; in data set [5] (astaxanthin dose 2.0 per 30 g of butter), 14.7 µm; in data set [5] (astaxanthin dose 3.5 per 30 g of butter), 12.2 µm; in [5] (astaxanthin dose 7.0 per 30 g of butter) it was 25 µm. This compound also came in with a Size of butter lipid droplets, Mean in [5] (astaxanthin dose 10.0 per 30 g of butter) of 34.1 µm. For the same compound, the “Increase of beef fat globules diameter” value in data set [6] is given as 2.5 folds. Further, the “Melting time of dark chocolate” value in “Melting time at 37° C. [1]” is 5 min. Moreover, the “Reduction of melting time of dairy butter” value in the data set “Melting time at 37° C. [7]” is “more than 3.5 fold”. The “Melting time of dairy butter” value in “Melting time at 37° C. [7]” (control 140 seconds) was 38 s. Besides, the “Rate of heating of olive oil emulsion in water in the first 3 minutes” value in data set [8] (50%:50%, 1 molecule lycopene to 67,000 or astaxanthin to 71,000 fatty acids, control 10° C.) amounted to 23 °C. In addition, the “Maximum temperature the emulsion could reach” value in data set [8] (water to olive oil 75%:25%, control 62° C.) was found to be 90 °C. In addition, in data set [9] (P=0.0075), the “Corneocyte desquamation levels at the end of the study” value is recorded as “clearly reduced in most volunteers”. Moreover, the “Lipid droplet size, day 29 vs day 0” value is “statistically significant (P=0.0214) increase” in [9] (subgroup of obese subjects) and “has not reached statistical significance” in data set [9] (whole group, P=0.0683). Further, the “Microbial presence in RSSC samples” value in data set [9] (whole volunteer group) is given as “statistically significant (P=0.0367) decrease”. The “Oil volume needed to cover the surface of the water” value in data set [10] turned out to be 15 mL.
